Results reported in the NIST ThermoML archive (doi:10.1021/acs.jced.9b00371).
Numbers after ± are expanded uncertainties.

Settings: Liquid, Brillouin light scattering method

CCCCCCCC(=O)OC [methyl octanoate]
speed of sound (298.22 K, 7000 kPa): 1316.3 ± 14 m/s | speed of sound (298.3 K, 10010 kPa): 1327.9 ± 15 m/s | speed of sound (298.44 K, 1010 kPa): 1292.1 ± 14 m/s | speed of sound (298.44 K, 5000 kPa): 1307.1 ± 14 m/s | speed of sound (298.6 K, 3000 kPa): 1298.2 ± 14 m/s | speed of sound (298.84 K, 90 kPa): 1274.5 ± 14 m/s | speed of sound (308.25 K, 3010 kPa): 1258.8 ± 15 m/s | speed of sound (308.37 K, 10010 kPa): 1291.2 ± 14 m/s | speed of sound (308.42 K, 100 kPa): 1236.4 ± 15 m/s | speed of sound (308.49 K, 7010 kPa): 1280.4 ± 14 m/s | speed of sound (308.52 K, 1010 kPa): 1248.8 ± 15 m/s | speed of sound (308.58 K, 5010 kPa): 1270.1 ± 14 m/s | speed of sound (318.18 K, 5010 kPa): 1221.3 ± 15 m/s | speed of sound (318.56 K, 7020 kPa): 1229.5 ± 15 m/s | speed of sound (318.76 K, 10010 kPa): 1242.4 ± 15 m/s | speed of sound (318.91 K, 3010 kPa): 1208 ± 14 m/s | speed of sound (319.59 K, 110 kPa): 1192.3 ± 14 m/s | speed of sound (319.89 K, 1010 kPa): 1194.5 ± 14 m/s | speed of sound (327.96 K, 5010 kPa): 1186 ± 14 m/s | speed of sound (328.11 K, 3020 kPa): 1171.3 ± 14 m/s | speed of sound (328.36 K, 100 kPa): 1158 ± 14 m/s | speed of sound (328.69 K, 7010 kPa): 1191.4 ± 14 m/s | speed of sound (328.82 K, 10010 kPa): 1209.9 ± 14 m/s | speed of sound (328.88 K, 1010 kPa): 1155.4 ± 14 m/s | speed of sound (337.63 K, 100 kPa): 1121.6 ± 15 m/s | speed of sound (337.88 K, 7010 kPa): 1157.9 ± 14 m/s | speed of sound (338.43 K, 1010 kPa): 1125.5 ± 15 m/s | speed of sound (338.46 K, 10010 kPa): 1174.8 ± 14 m/s | speed of sound (338.47 K, 5000 kPa): 1147.2 ± 14 m/s | speed of sound (338.96 K, 3000 kPa): 1134.3 ± 14 m/s | speed of sound (347.39 K, 3000 kPa): 1104.6 ± 14 m/s | speed of sound (347.87 K, 10010 kPa): 1148.4 ± 14 m/s | speed of sound (348.45 K, 110 kPa): 1078.6 ± 14 m/s | speed of sound (348.54 K, 5020 kPa): 1109.1 ± 14 m/s | speed of sound (348.77 K, 7000 kPa): 1120.5 ± 15 m/s | speed of sound (348.8 K, 1000 kPa): 1085.5 ± 14 m/s | speed of sound (357.69 K, 3010 kPa): 1071.8 ± 14 m/s | speed of sound (357.74 K, 5000 kPa): 1079.2 ± 14 m/s | speed of sound (357.91 K, 10000 kPa): 1112.7 ± 14 m/s | speed of sound (358.16 K, 100 kPa): 1044.6 ± 14 m/s | speed of sound (358.25 K, 7000 kPa): 1095.1 ± 14 m/s | speed of sound (358.56 K, 1010 kPa): 1049.3 ± 14 m/s | speed of sound (367.26 K, 5000 kPa): 1049.2 ± 14 m/s | speed of sound (367.28 K, 3000 kPa): 1038.1 ± 14 m/s | speed of sound (367.29 K, 110 kPa): 1015.5 ± 14 m/s | speed of sound (367.47 K, 10010 kPa): 1078.4 ± 14 m/s | speed of sound (367.73 K, 7010 kPa): 1060.7 ± 14 m/s | speed of sound (368.05 K, 1000 kPa): 1017.5 ± 14 m/s | speed of sound (377.8 K, 1000 kPa): 989.1 ± 14 m/s | speed of sound (378.03 K, 7000 kPa): 1027.3 ± 13 m/s | speed of sound (378.16 K, 4990 kPa): 1013.1 ± 14 m/s | speed of sound (378.27 K, 100 kPa): 975.6 ± 14 m/s | speed of sound (378.29 K, 10000 kPa): 1047.1 ± 14 m/s | speed of sound (378.6 K, 3000 kPa): 1000.4 ± 14 m/s | speed of sound (387.15 K, 110 kPa): 947.3 ± 13 m/s | speed of sound (387.64 K, 3000 kPa): 964.7 ± 14 m/s | speed of sound (387.88 K, 10010 kPa): 1017.7 ± 14 m/s | speed of sound (388.01 K, 7000 kPa): 991.8 ± 14 m/s | speed of sound (388.02 K, 1000 kPa): 952.1 ± 13 m/s | speed of sound (388.04 K, 5000 kPa): 978.4 ± 14 m/s | speed of sound (397.22 K, 1010 kPa): 922.4 ± 14 m/s | speed of sound (397.37 K, 3010 kPa): 934 ± 14 m/s | speed of sound (397.49 K, 10010 kPa): 988 ± 14 m/s | speed of sound (397.57 K, 7010 kPa): 963.7 ± 14 m/s | speed of sound (397.59 K, 5010 kPa): 949.2 ± 13 m/s | speed of sound (397.71 K, 100 kPa): 910.7 ± 14 m/s | speed of sound (407.84 K, 5010 kPa): 916.3 ± 14 m/s | speed of sound (408.01 K, 10010 kPa): 954.1 ± 13 m/s | speed of sound (408.03 K, 3000 kPa): 896.1 ± 13 m/s | speed of sound (408.14 K, 100 kPa): 873.1 ± 13 m/s | speed of sound (408.48 K, 7010 kPa): 933.8 ± 14 m/s | speed of sound (409.43 K, 1000 kPa): 879.8 ± 13 m/s | speed of sound (417.31 K, 1010 kPa): 850.6 ± 14 m/s | speed of sound (417.49 K, 110 kPa): 841.4 ± 14 m/s | speed of sound (417.49 K, 5000 kPa): 885.5 ± 13 m/s | speed of sound (417.57 K, 7000 kPa): 904.2 ± 14 m/s | speed of sound (417.65 K, 10000 kPa): 925.4 ± 14 m/s | speed of sound (417.75 K, 3000 kPa): 867.9 ± 13 m/s | speed of sound (427.78 K, 110 kPa): 811.6 ± 13 m/s | speed of sound (427.88 K, 7010 kPa): 873.7 ± 13 m/s | speed of sound (427.9 K, 1010 kPa): 822.3 ± 13 m/s | speed of sound (427.93 K, 3010 kPa): 837.5 ± 13 m/s | speed of sound (427.94 K, 10010 kPa): 899.7 ± 14 m/s | speed of sound (427.95 K, 5010 kPa): 855.8 ± 14 m/s
